In patent US20210196672A1, “COMPOSITIONS COMPRISING 3'-O-METHYL-5-O-SULFATE EPICATECHIN AND THERAPEUTIC USES OF SUCH COMPOSITIONS” (NESTEC S.A., priority 2016, published 2021) one finds eNOS phosphorylation data, which are given here for 1 molecule.

The assay has as its system endothelial nitric oxide synthase. The assay is described as follows: eNOS phosphorylation level in isolated aortic rat rings (western blot). It is filed as cell-based. To be noted: isolated thoracic aortic rings of male adult Wistar rats, 1 h incubation, relative to the control (DMSO 1%) and chemically similar epicatechins, FIG. 2. As to the method: Comparative experiments were conducted on the expression of endothelial nitric oxide synthase in isolated aortic rat rings.
Thoracic aortas were obtained from male adults Wistar rats after euthanasia. Each aorta was carefully dissected and harvested cleaned of excess tissue and cut into three equal segments, approximately 7 mm long. All aortic rings were pre-incubated for 30 min in Krebs solution (20 mM Hepes buffer, pH 7.4, containing 119 mM NaCl, 4.7 mM KCl, 1 mM MgSO4, 0.4 mM NaH2PO4, 0.15 mM Na2HPO4, 5 mM NaHCO3, 1.25 mM CaCl2, 5.5 mM glucose) aerated with 95% 02 and 5% CO2 at 37° C. and then incubated with vehicle (DMSO 1%) or the different metabolites for 1 h. Metabolites were first dissolved in DMSO 1% and tested in a final concentration […]. At the end of the incubation period aortic rings were frozen at −70° C. until the homogenate preparation. Homogenates for western blot and western blot determinations were carried out by the regular procedures and phosphorylation level of endothelial nitric oxide synthase was evaluated.
(In western blotting, separated proteins are transferred to a membrane and probed.)

Turning to `COc1cc([C@H]2Oc3cc(O)cc(OS(=O)(=O)O)c3C[C@H]2O)ccc1O` [3′-O-methyl-5-O-sulfate epicatechin], the eNOS phosphorylation entry was “increased eNOS phosphorylation relative to the control and chemically similar epicatechins”.
